# Data from patent US6461997B1, “Triazole sulfones having herbicidal activity” (Monsanto Technology LLC, priority 1999, dated 2002).
# Tests used:
# AVEFA (wild oat) = experiment: Post-emergence herbicidal activity, cool season; assay type: in vivo, Avena fatua; details: abraded plants sprayed at 300, 100, 30 and 10 g/ha; about 14 days after treatment
# Procedure: (§1) In another set of tests, the post-emergence activity of compounds of this invention was evaluated on the cool season species listed above. The following procedure was used.
# (§2) A pre-prepared topsoil mixture (described above) was placed in a pot and compacted to a depth of 1.0 to 1.25 cm from the top of the pot. Seeds of each of several monocotyledonous and dicotyledonous annual plant species were placed on top of the soil. The seeds were covered with a mixture of 50% topsoil and 50% Rediearth™ in sufficient quantity to level-fill the pots. The pots were then placed on a greenhouse bench and subirrigated as needed.
# (§3) When plants growing from the seeds had emerged and reached a suitable growth stage for post-emergence treatment, typically 9 to 14 days after planting, above-ground parts of the plants were subjected to a pre-treatment involving abrasion to create greater opportunity for foliar uptake of subsequently applied compounds. Abrasion was performed using garnet 200w particles applied with a Sears Craftsman hand-held sandblaster operated at approximately 850 kPa (50 psig) pressure.
# (§4) A known amount of each test compound dissolved or suspended in an appropriate organic solvent was diluted with a 50:50 mix of acetone and water and applied to the plants by spraying with a standard spray nozzle in a spray volume of […] at a spray pressure of 511 kPa (30 psig). Only the compounds of Examples 1, 8-15 and 17-22 were included in post-emergence tests. Application rates for these compounds were 300, 100, 30 and 10 g/ha. Control plants were abraded but not sprayed.
# (§5) After treatment the plants were placed in a greenhouse with an 18/13° C. day/night temperature regime and were subsequently watered as needed for growth. Approximately 14 days after treatment, the plants were observed and herbicidal efficacy recorded as percent inhibition by comparison with control plants. GR80 values were assigned for each compound as described above for the pre-emergence tests.
# [1] = tested on: AGSST (creeping bentgrass); experiment: Post-emergence herbicidal activity, cool season; assay type: in vivo, Agrostis stolonifera; details: abraded plants sprayed at 300, 100, 30 and 10 g/ha; about 14 days after treatment
# Procedure: as §1, §2, §3, §4, §5
# DIGSA (large crabgrass) = experiment: Pre-plant incorporated (PPI) herbicidal activity, warm season; assay type: in vivo, Digitaria sanguinalis; details: for Percent inhibition DIGSA / inhibition at 10 g/ha / inhibition at 30 g/ha / inhibition at 100 g/ha / inhibition at 300 g/ha / inhibition at 900 g/ha: PPI application; for inhibition at 10 g/ha / inhibition at 30 g/ha / inhibition at 100 g/ha / inhibition at 300 g/ha / inhibition at 900 g/ha: Digitaria sanguinalis, read-out: Percent inhibition DIGSA; for PPI activity GR80, DIGSA: pre-plant incorporated, lowest tested rate with 80% or greater inhibition, about 14 days
# Procedure: (§6) In another set of tests, the pre-plant incorporated (PPI) activity of compounds of this invention was evaluated on the same species as for the pre-emergence tests described above. In the PPI tests the following procedure, designed to simulate PPI application, was used.
# (§7) A pre-prepared topsoil mixture (described above) was placed in a pot and compacted to a depth of 1.0 to 1.25 cm from the top of the pot. Seeds of each of several monocotyledonous and dicotyledonous annual plant species were placed on top of the soil. A sufficient quantity of soil to cover the seeds and level fill the pot was weighed into an open container. A known amount of the test compound was dissolved or suspended in an organic solvent and applied by spraying to this cover soil. The cover soil was thoroughly mixed to distribute the test compound throughout the cover soil, and was then applied as a cover layer over the seeds. Untreated soil was used as a cover layer for control pots. After treatment the plants were placed in a greenhouse where they received 0.64 cm of overhead irrigation. All subsequent watering consisted of a light overhead mist and/or subirrigation as needed for germination and growth. Tables 9 and 10 below relate to warm season plant species which were placed after pre-emergence treatment in a greenhouse with a 30/21° C. day/night temperature regime. Tables 11 and 12 below relates to cool season plant species placed after pre-emergence treatment in a greenhouse or growth chamber with an 18/13° C. day/night temperature regime. Only the compounds of Examples 1, 6, 8, 11, 13 and 15-20 were included in PPI tests.
# (§8) Approximately 14 days after planting and treating, the plants were observed and herbicidal efficacy recorded as percent inhibition by comparison with untreated plants.
# ALOMY (blackgrass) = experiment: Pre-emergence herbicidal activity, cool season; assay type: in vivo, Alopecurus myosuroides; details: GR80 = lowest tested rate (300, 100, 30, 10 g/ha) with 80% or greater inhibition; approx. 14 days after treating; 18/13° C.
# Procedure, shortened: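 GR80 values, pre-emergence, soil applied at 300, 100, 30, 10 g/ha. Warm regime 30/21 °C: PANMI, DIGSA. Cool regime 18/13 °C: ALOMY, POLCO. Rating ~14 d, % inhibition vs untreated.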
# [2] = tested on: AEGCY (jointed goatgrass); experiment: Post-emergence herbicidal activity, cool season; assay type: in vivo, Aegilops cylindrica; details: abraded plants sprayed at 300, 100, 30 and 10 g/ha; about 14 days after treatment
# Procedure: as §1, §2, §3, §4, §5
# [3] = tested on: LAMPU (purple deadnettle); experiment: Pre-emergence herbicidal activity, cool season; assay type: in vivo, Lamium purpureum; details: lowest tested rate with 80% or greater inhibition; rates 300, 100, 30, 10 g/ha; about 14 days
# Procedure, shortened: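 GR80 values derive from percent inhibition relative to untreated plants, read roughly 14 days after sowing and pre-emergence soil-surface treatment (compound in 50:50 acetone/water; rates typically 10, 30, 100, 300 g/ha). Warm-season weeds grew at 30/21° C day/night, cool-season ones at 18/13° C; an asterisk marks activity without reaching 80% at the highest rate.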
# PANDI (fall panicum) = experiment: Pre-plant incorporated (PPI) herbicidal activity, warm season; assay type: in vivo, Panicum dichotomiflorum; details: for Percent inhibition PANDI: PPI application
# Procedure: as §6, §7, §8
# [4] = tested on: AGSST (creeping bentgrass); experiment: Pre-plant incorporated (PPI) herbicidal activity, cool season; assay type: in vivo, Agrostis stolonifera; details: for Percent inhibition AGSST / inhibition at 10 g/ha / inhibition at 30 g/ha / inhibition at 100 g/ha / inhibition at 300 g/ha / inhibition at 900 g/ha: weed, PPI application; for PPI activity GR80, AGSST: pre-plant incorporated, lowest tested rate with 80% or greater inhibition, about 14 days; for inhibition at 10 g/ha / inhibition at 30 g/ha / inhibition at 100 g/ha / inhibition at 300 g/ha / inhibition at 900 g/ha: Agrostis stolonifera, read-out: Percent inhibition AGSST
# Procedure: as §6, §7, §8
# [5] = tested on: VERPE (creeping speedwell); experiment: as above; assay type: in vivo, Veronica persicaria; details: for PPI activity GR80, VERPE: pre-plant incorporated, lowest tested rate with 80% or greater inhibition, about 14 days; for inhibition at 10 g/ha / inhibition at 30 g/ha / inhibition at 100 g/ha / inhibition at 300 g/ha / inhibition at 900 g/ha: weed, PPI application, read-out: Percent inhibition VERPE
# Procedure: as §6, §7, §8
Compound,"Post-emergence activity GR80, AVEFA (AVEFA (wild oat))","Post-emergence activity GR80, AGSST [1]",Pre-emergence activity (GR80) ALOMY (ALOMY (blackgrass)),"Post-emergence activity GR80, AEGCY [2]","Pre-emergence activity GR80, LAMPU [3]",inhibition at 10 g/ha (DIGSA (large crabgrass)),inhibition at 30 g/ha (DIGSA (large crabgrass); 30 g/ha),inhibition at 100 g/ha (DIGSA (large crabgrass); 100 g/ha),inhibition at 300 g/ha (DIGSA (large crabgrass); 300 g/ha),inhibition at 900 g/ha (DIGSA (large crabgrass); 900 g/ha),"PPI activity GR80, DIGSA (DIGSA (large crabgrass))","PPI activity GR80, VERPE [5]","PPI activity GR80, AGSST [4]",inhibition at 10 g/ha [5],inhibition at 30 g/ha [5],inhibition at 100 g/ha [5],inhibition at 300 g/ha [5],inhibition at 900 g/ha [5],inhibition at 10 g/ha [4],inhibition at 30 g/ha ([4]; 30 g/ha),other results
CCN(CC)C(=O)n1cnc(S(=O)(=O)C(F)(F)SC)n1 [Example 9],[empty],[empty],300 g/ha,[empty],300 g/ha,–,–,–,–,–,–,–,–,–,–,–,–,–,–,–,Percent inhibition DIGSA (DIGSA (large crabgrass); 30 g/ha): 95%; Percent inhibition DIGSA (DIGSA (large crabgrass); 100 g/ha): 100%; Percent inhibition DIGSA (DIGSA (large crabgrass); 300 g/ha): 100%; Percent inhibition DIGSA (DIGSA (large crabgrass); 900 g/ha): 100%; Percent inhibition PANDI (PANDI (fall panicum); 30 g/ha): 100%; Percent inhibition PANDI (PANDI (fall panicum); 100 g/ha): 100%; Percent inhibition PANDI (PANDI (fall panicum); 300 g/ha): 100%; Percent inhibition PANDI (PANDI (fall panicum); 900 g/ha): 100%; Percent inhibition AGSST ([4]; 30 g/ha): 99%; Percent inhibition AGSST ([4]; 100 g/ha): 100%; Percent inhibition AGSST ([4]; 300 g/ha): 100%; Percent inhibition AGSST ([4]; 900 g/ha): 100%
CCN(CC)C(=O)n1cnc(S(=O)(=O)C(F)(F)C(F)(F)SC)n1 [Example 14],[empty],300 g/ha,100 g/ha,[empty],300 g/ha,–,–,–,–,–,–,–,–,–,–,–,–,–,–,–,–
"CCN(CC)C(=O)n1cnc(S(=O)(=O)C(F)F)n1 [Example 15, 1-(N,N-diethylcarbamoyl)-3-(difluoromethylsulfonyl)-1,2,4-triazole]",[empty],[empty],–,[empty],–,90%,70%,100%,100%,100%,100 g/ha,300 g/ha,100 g/ha,–,–,–,–,–,–,–,"PPI activity GR80, PANDI (PANDI (fall panicum); pre-plant incorporated, lowest tested rate with 80% or greater inhibition, about 14 days): 100 g/ha"
C=C(C)CC(F)(F)S(=O)(=O)c1ncn(C(=O)N(CC)CC)n1 [Example 18],[empty],[empty],300 g/ha,[empty],300 g/ha,20%,80%,80%,100%,100%,30 g/ha,[empty],10 g/ha,0%,20%,80%,95%,99%,100%,60%,inhibition at 100 g/ha ([4]; 100 g/ha): 100%; inhibition at 300 g/ha ([4]; 300 g/ha): 99%; inhibition at 900 g/ha ([4]; 900 g/ha): 100%
C=C(Br)CC(F)(F)S(=O)(=O)c1ncn(C(=O)N(CC)CC)n1 [Example 19],[empty],[empty],100 g/ha,[empty],30 g/ha,–,40%,90%,90%,99%,30 g/ha,[empty],10 g/ha,0%,40%,20%,20%,99%,60%,90%,inhibition at 100 g/ha ([4]; 100 g/ha): 100%; inhibition at 300 g/ha ([4]; 300 g/ha): 90%; inhibition at 900 g/ha ([4]; 900 g/ha): 100%
